The results in this text go back to patent US20260098030A1, “NEGATIVE ALLOSTERIC MODULATORS OF METABOTROPIC GLUTAMATE RECEPTOR 2” (Vanderbilt University, priority 2022, published 2026).

Structures are written as SMILES.

The target in this experiment is T1, rat mGlu2 (Rattus norvegicus, UniProt P31421).
T1 construct: expressed in transfected cells; host or cells: HEK-293 cells stably co-expressing GIRK channels
Kind of experiment: mGlu GIRK cell-based thallium flux assay, rat mGlu2. To be noted: HEK-293 cells co-expressing rat mGlu2 and GIRK, EC80 glutamate. The protocol:
Human embryonic kidney (HEK-293) cell lines stably co-expressing human or rat mGlu2 and G protein-coupled inwardly rectifying potassium (GIRK) channels, or human mGlu3 and GIRK, were used for in vitro evaluation of compound activity in thallium flux assay using a fluorescent thallium indicator dye.
The day before the assay, GIRK cells co-expressing human mGlu3, human or rat mGlu2, as described above, were plated in black-walled, clear-bottomed, amine-coated 384-well plates at a density of 15,000 cells/20 μL/well in the assay medium (glutamine-depleted basal DMEM supplemented with 10% dialyzed FBS, 20 mM HEPES, 1 mM sodium pyruvate). Cells were incubated at 37° C. in the presence of 5% CO2. The next day, assay buffer (Hanks balanced salt solution, 20 mM HEPES, 4.16 mM sodium bicarbonate, pH 7.2) was prepared to dilute compounds and Thallos AM fluorescent dye solution. The 2× Thallos dye solution (final concentration 0.34 μM to the cells) was prepared by mixing the dye stock (2.97 mM in DMSO) to 1:1 with 10% pluronic acid before adding to the assay buffer. Cells were washed with assay buffer using a microplate washer to remove the medium, resulting in 20 μL of buffer remaining in each well. Immediately, 20 μL of 2× Thallos dye solution was added to cells, and incubated for one hour at 25° C. During the cell dye loading incubation period, a 10-point concentration serial dilution of compound was created from a 10 mM DMSO compound stock by performing a 1:3 serial dilution in DMSO using the Bravo liquid handler. The 2× compound plate was generated by transferring 0.24 μL of the diluted compound in each well to a daughter plate using an Echo acoustic liquid handler. This is further diluted in 40 μL assay buffer, resulting in a range from 30 μM to 1.5 nM final concentration in the assay. The agonist plate (5×) was prepared to include EC80 glutamate concentration (a concentration to elicit 80% of a maximally effective glutamate concentration) in thallium buffer (125 mM […], 1 mM magnesium sulfate, 1.8 mM calcium sulfate, 5 mM glucose, 10 mM HEPES, pH 7.2, 12.5 mM thallium sulfate).
After dye-loading, cell plates were washed with assay buffer to remove excess extracellular dye using a microplate washer, resulting in 20 μL of buffer remaining in each well. After a ten-minute equilibration period, cell, compound and agonist plates were loaded into a Hamamatsu μCell kinetic imaging plate reader equipped with liquid handler to monitor fluorescence changes at 480 nm excitation and 540 nm emission settings. Briefly, after collection of baseline fluorescence, 20 μL of compound was added and incubated for two minutes and twenty seconds. This is immediately followed by adding 10 μL of glutamate-thallium buffer to the wells containing compound. The fluorescent signal was monitored an additional 2.5 minutes after the glutamate addition. Multiple reference wells containing no compound received either no glutamate (for a baseline reference), EC80 glutamate, or ECmax glutamate (for normalization to maximum response). Fluorescence was measured throughout the experiment at a frequency of 1 measurement per every 2 seconds before the glutamate addition and a frequency of 1 measurement per every 1 second after the glutamate addition. Each compound concentration series occurred one time in each plate, and replicates from two or three plates were used in each experimental run. Thallium solutions were handled and disposed of according to guidelines from the Vanderbilt University Chemical Safety department.
Data were normalized using a static ratio function (F/F0) by dividing every fluorescent measurement by the initial fluorescent value for the corresponding well. The increase in signal resulting from the glutamate/thallium addition of the second add was measured by determining the slope from 3 seconds to 13 seconds after the addition. […]

T1 sequence (P31421 19-872): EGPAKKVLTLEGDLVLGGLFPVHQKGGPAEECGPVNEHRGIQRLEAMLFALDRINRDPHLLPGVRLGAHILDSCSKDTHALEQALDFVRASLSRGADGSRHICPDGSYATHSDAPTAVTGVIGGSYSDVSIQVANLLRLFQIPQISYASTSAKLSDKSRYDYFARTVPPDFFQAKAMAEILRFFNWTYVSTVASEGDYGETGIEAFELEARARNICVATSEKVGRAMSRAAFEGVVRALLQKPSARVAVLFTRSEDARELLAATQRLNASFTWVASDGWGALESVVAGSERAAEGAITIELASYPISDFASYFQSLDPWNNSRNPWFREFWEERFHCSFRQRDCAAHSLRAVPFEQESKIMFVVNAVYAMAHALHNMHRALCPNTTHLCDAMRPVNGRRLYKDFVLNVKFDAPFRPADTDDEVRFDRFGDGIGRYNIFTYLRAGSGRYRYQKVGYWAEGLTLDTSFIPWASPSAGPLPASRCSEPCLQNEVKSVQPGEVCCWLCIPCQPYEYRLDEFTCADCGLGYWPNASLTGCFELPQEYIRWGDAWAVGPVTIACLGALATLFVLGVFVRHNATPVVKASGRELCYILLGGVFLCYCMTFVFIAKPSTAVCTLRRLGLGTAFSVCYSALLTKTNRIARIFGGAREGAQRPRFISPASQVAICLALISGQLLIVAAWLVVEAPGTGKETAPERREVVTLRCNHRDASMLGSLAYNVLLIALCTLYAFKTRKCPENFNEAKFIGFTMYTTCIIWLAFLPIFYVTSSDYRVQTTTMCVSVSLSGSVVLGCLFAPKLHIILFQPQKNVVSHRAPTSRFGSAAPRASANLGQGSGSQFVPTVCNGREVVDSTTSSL

By IC50 is commonly meant the concentration that inhibits the measured activity by half. Low values mean inhibition by little substance, high ones a need for much substance. Molecule `O=C1NCc2cc(-c3ccc4ncsc4c3)c(-c3ccc(F)cc3)cc21` [Compound 11, 5-(benzo[d]thiazol-6-yl)-6-(4-fluorophenyl)isoindolin-1-one] registered an IC50 above 10 µM.

On to `O=C1NCc2cc(-c3ccc4ncccc4c3)c(-c3ccc(F)cc3)cc21` [Compound 19, 6-(4-fluorophenyl)-5-(quinolin-6-yl)isoindolin-1-one], for which the IC50 was found to be 4.31 µM.

Molecule `O=C1NCc2cc(C3=CCCNC3)c(-c3ccc(F)cc3)cc21` [Compound 61, 6-(4-fluorophenyl)-5-(1,2,5,6-tetrahydropyridin-3-yl)isoindolin-1-one] registered an IC50 above 10 µM.

The molecule `O=C1NCc2cc(-c3ccc(C4CC4)nc3)c(-c3ccc(F)cc3)cc21` [Compound 26, 5-(6-cyclopropylpyridin-3-yl)-6-(4-fluorophenyl)isoindolin-1-one] returned an IC50 above 10 µM.

`O=C1NCc2cc(-c3cccnc3F)c(-c3ccc(F)cc3)cc21` [Compound 40, 6-(4-fluorophenyl)-5-(2-fluoropyridin-3-yl)isoindolin-1-one] displayed an IC50 above 10 µM.

The molecule `Cn1ccc(-c2cc3c(cc2-c2ccc(F)cc2)C(=O)NC3)n1` [Compound 35, 6-(4-fluorophenyl)-5-(1-methyl-1H-pyrazol-3-yl)isoindolin-1-one] showed an IC50 of 1.03 µM.

`Cc1ccncc1-c1cc2c(cc1-c1ccc(F)cc1)C(=O)NC2` [Compound 48, 6-(4-fluorophenyl)-5-(4-methylpyridin-3-yl)isoindolin-1-one] came in with an IC50 above 10 µM.

`Cn1cc2cccc(-c3cc4c(cc3-c3ccc(F)cc3)C(=O)NC4)c2n1` [Compound 17, 6-(4-fluorophenyl)-5-(2-methyl-2H-indazol-7-yl)isoindolin-1-one]: 1.24 µM corresponded to half-maximal inhibition (IC50).

In turn, `O=C1NCc2cc(-c3cccnc3)c(-c3ccc(F)cc3)cc21` [Compound 44, 6-(4-fluorophenyl)-5-(pyridin-3-yl)isoindolin-1-one] showed an IC50 above 10 µM.

In the case of `O=C1NCc2cc(-c3ccc(C4CC4)nc3)c(-c3ccc(F)cc3F)cc21` [Compound 70, 5-(6-cyclopropylpyridin-3-yl)-6-(2,4-difluorophenyl)isoindolin-1-one], half-maximal inhibition (IC50) was put at 1.98 µM.

As for `Cn1cc2ccc(-c3cc4c(cc3-c3ccc(F)cc3F)C(=O)NC4)cc2n1` [Compound 25, 6-(2,4-difluorophenyl)-5-(2-methyl-2H-indazol-6-yl)isoindolin-1-one], the IC50 was found to be 2.35 µM.

In turn, `Cc1n[nH]c2ccc(-c3cc4c(cc3-c3ccc(F)cc3)C(=O)NC4)cc12` [Compound 47, 6-(4-fluorophenyl)-5-(3-methyl-1H-indazol-5-yl)isoindolin-1-one] yielded an IC50 above 10 µM.

Turning to `CC(=O)Nc1ccc(-c2cc3c(cc2-c2ccc(F)cc2)C(=O)NC3)cn1` [Compound 36, N-(5-(6-(4-fluorophenyl)-1-oxoisoindolin-5-yl)pyridin-2-yl)acetamide], the IC50 was above 10 µM.

`O=C1NCc2cc(-c3ccc(F)nc3F)c(-c3ccc(F)cc3)cc21` [Compound 32, 5-(2,6-difluoropyridin-3-yl)-6-(4-fluorophenyl)isoindolin-1-one] showed an IC50 above 10 µM.

The molecule `O=C1NCc2cc(-c3cccnc3)c(-c3ccc(F)cc3F)cc21` [Compound 88, 6-(2,4-difluorophenyl)-5-(pyridin-3-yl)isoindolin-1-one] gave an IC50 of 1.65 µM.

As to `O=C1NCc2cc(-c3ccc4scnc4c3)c(-c3ccc(F)cc3F)cc21` [Compound 23, 5-(benzo[d]thiazol-5-yl)-6-(2,4-difluorophenyl)isoindolin-1-one], half-maximal inhibition (IC50) required 2.15 µM. This IC50 and that of the molecule before are within 1.5-fold of each other.

`O=C1NCc2cc(-c3ccc4cnccc4c3)c(-c3ccc(F)cc3)cc21` [Compound 14, 6-(4-fluorophenyl)-5-(isoquinolin-6-yl)isoindolin-1-one] gave an IC50 of 2.25 µM. The IC50 values of the last two molecules are within 1.5-fold of each other.

For the molecule `CN(C)c1ccc(-c2cc3c(cc2-c2ccc(F)cc2)C(=O)NC3)cn1` [Compound 34, 5-(6-(dimethylamino)pyridin-3-yl)-6-(4-fluorophenyl)isoindolin-1-one], the IC50 was above 10 µM.

Molecule `Cn1cc2cc(-c3cc4c(cc3-c3ccc(F)cc3)C(=O)NC4)cnc2n1` [Compound 16, 6-(4-fluorophenyl)-5-(2-methyl-2H-pyrazolo[3,4-b]pyridin-5-yl)isoindolin-1-one] returned an IC50 above 10 µM.

The molecule `COc1cc(F)ccc1-c1cc2c(cc1-c1ccc(F)cc1F)C(=O)NC2` [Compound 105, 6-(2,4-difluorophenyl)-5-(4-fluoro-2-methoxyphenyl)isoindolin-1-one] showed an IC50 of 4.49 µM.

The molecule `CC1(C)CC(c2cc3c(cc2-c2ccc(F)cc2)C(=O)NC3)CC(C)(C)N1` [Compound 75, 6-(4-fluorophenyl)-5-(2,2,6,6-tetramethylpiperidin-4-yl)isoindolin-1-one] showed an IC50 above 10 µM.

In turn, `Cc1nc(F)ccc1-c1cc2c(cc1-c1ccc(F)cc1)C(=O)NC2` [Compound 30, 5-(6-fluoro-2-methylpyridin-3-yl)-6-(4-fluorophenyl)isoindolin-1-one] gave an IC50 above 10 µM.

The molecule `Cc1ncccc1-c1cc2c(cc1-c1ccc(F)cc1)C(=O)NC2` [Compound 41, 6-(4-fluorophenyl)-5-(2-methylpyridin-3-yl)isoindolin-1-one] yielded an IC50 above 10 µM.

Turning to `O=C1NCc2cc(-c3ccc4cccnc4c3)c(-c3ccc(F)cc3)cc21` [Compound 18, 6-(4-fluorophenyl)-5-(quinolin-7-yl)isoindolin-1-one], the IC50 turned out to be 4.33 µM.

In turn, `Cc1c(C#N)cccc1-c1cc2c(cc1-c1ccc(F)cc1F)C(=O)NC2` [Compound 109, 3-(6-(2,4-difluorophenyl)-1-oxoisoindolin-5-yl)-2-methylbenzonitrile] displayed an IC50 of 1.13 µM.

Molecule `CC1(C)C=C(c2cc3c(cc2-c2ccc(F)cc2)C(=O)NC3)CC(C)(C)N1` [Compound 59, 6-(4-fluorophenyl)-5-(2,2,6,6-tetramethyl-1,2,3,6-tetrahydropyridin-4-yl)isoindolin-1-one] yielded an IC50 above 10 µM.

Regarding `Cn1cc2c(-c3cc4c(cc3-c3ccc(F)cc3)C(=O)NC4)cccc2n1` [Compound 28, 6-(4-fluorophenyl)-5-(2-methyl-2H-indazol-4-yl)isoindolin-1-one], the concentration for half-maximal inhibition (IC50) came to 1.93 µM.

In the case of `O=C1NCc2cc(C3CCNC3)c(-c3ccc(F)cc3)cc21` (stereo not shown) [Compound 83, 6-(4-fluorophenyl)-5-(pyrrolidin-3-yl)isoindolin-1-one], the IC50 was above 10 µM.

`O=C1NCc2cc(-c3ccc4scnc4c3)c(-c3ccc(F)cc3)cc21` [Compound 13, 5-(benzo[d]thiazol-5-yl)-6-(4-fluorophenyl)isoindolin-1-one] had an IC50 of 0.161 µM. In other words, the sub-micromolar range.

In the case of `O=C1NCc2cc(-c3ccccn3)c(-c3ccc(F)cc3)cc21` [Compound 45, 6-(4-fluorophenyl)-5-(pyridin-2-yl)isoindolin-1-one], the IC50 was above 10 µM.

On to `O=C1NCc2cc(-c3ccc4ccncc4c3)c(-c3ccc(F)cc3)cc21` [Compound 15, 6-(4-fluorophenyl)-5-(isoquinolin-7-yl)isoindolin-1-one], for which the IC50 came to 4.06 µM.

In turn, `O=C1NCc2cc(-c3cccnc3N3CCCC3)c(-c3ccc(F)cc3F)cc21` [Compound 102, 6-(2,4-difluorophenyl)-5-(2-(pyrrolidin-1-yl)pyridin-3-yl)isoindolin-1-one] showed an IC50 above 10 µM.

The molecule `O=C1NCc2cc(-c3cc(F)c4ncccc4c3F)c(-c3ccc(F)cc3)cc21` [Compound 21, 5-(5,8-difluoroquinolin-6-yl)-6-(4-fluorophenyl)isoindolin-1-one] gave an IC50 of 3.81 µM. That is a single-digit micromolar value.

Take `Cc1cc(F)ncc1-c1cc2c(cc1-c1ccc(F)cc1)C(=O)NC2` [Compound 37, 5-(6-fluoro-4-methylpyridin-3-yl)-6-(4-fluorophenyl)isoindolin-1-one]: the IC50 is above 10 µM.
